Activity calls are given as the source filed them. The calls are words filed in the database; no cut-off is given here.
Tests used:
Staphylococcus aureus [1] = experiment: Antibacterial activity against Staphylococcus aureus ATCC43300 infected in sepsis mouse model assessed as reduction in kidney damage at 5 to 10 mg/kg pre-infected with bacteria for 1 hrs followed by compound administration at 12 hrs interval for 2 days by H and E staining based analysis; format: functional, organism-based; details: dose 5-10 mg/kg, time 2.0 day
Cell membrane [2] = experiment: Disruption of cell membrane in Staphylococcus aureus ATCC43300 assessed as fold increase in DNA leakage at 8 microg/ml relative to control; format: subcellular; details: dose 8.0 µg/ml
Staphylococcus aureus [3] = experiment: Bactericidal activity against Staphylococcus aureus ATCC43300 in Mueller Hinton Broth; format: functional
Cell membrane [4] = experiment: Induction of cytoplasmic membrane depolarization in Staphylococcus aureus ATCC43300 assessed as fold increase in fluorescence intensity at 4 microg/ml measured after 24 mins by DiSC3(5) dye-based fluorescence assay relative to negative control; details: dose 4.0 µg/ml
Escherichia coli [5] = experiment: Bactericidal activity against Escherichia coli ATCC25922 assessed as log reduction in bacterial colony at 8 times of MIC measured after 6 hrs by time-kill kinetics assay; format: functional
Escherichia coli [6] = experiment: Disruption of preformed biofilm in Escherichia coli ATCC25922 assessed as eradication of biofilm at 8 microg/ml relative to control; format: functional; details: dose 8 µg/ml
Escherichia coli [7] = experiment: Ratio of MBC for Escherichia coli ATCC25922 in presence of 50% serum to MBC for Escherichia coli ATCC25922 in Mueller Hinton Broth; format: functional
Cell membrane [8] = experiment: Disruption of cell membrane in Escherichia coli ATCC25922 assessed as appearance of red fluorescence by PI staining based fluorescence microscopic analysis; format: subcellular
Staphylococcus aureus [9] = experiment: Antibacterial activity against penicillin-resistant Staphylococcus aureus ATCC31007 by broth microdilution assay; format: functional
Escherichia coli [10] = experiment: Antibacterial activity against Escherichia coli ATCC25922 infected in sepsis mouse model assessed as reduction in liver damage at 5 to 10 mg/kg pre-infected with bacteria for 1 hrs followed by compound administration at 12 hrs interval for 2 days by H and E staining based analysis; format: functional, organism-based; details: dose 5-10 mg/kg, time 2.0 day
Staphylococcus aureus [11] = experiment: Antibacterial activity against Staphylococcus aureus ATCC43300 infected in sepsis mouse model assessed as reduction in spleen inflammation at 5 to 10 mg/kg pre-infected with bacteria for 1 hrs followed by compound administration at 12 hrs interval for 2 days by H and E staining based analysis; format: functional, organism-based; details: dose 5-10 mg/kg, time 2.0 day
Staphylococcus aureus [12] = experiment: Selectivity ratio of MBC for Staphylococcus aureus ATCC43300 in presence of 50% serum to MBC for Staphylococcus aureus ATCC43300 in Mueller Hinton Broth; format: functional
Staphylococcus aureus [13] = experiment: Antibiofilm activity against Staphylococcus aureus ATCC43300 assessed as inhibition of biofilm formation at 1 microg/ml relative to control; format: functional
Staphylococcus aureus [14] = experiment: Induction of morphological changes in Staphylococcus aureus ATCC43300 assessed as rough appearance of cell membrane by scanning electron microscopic analysis; format: functional, organism-based
Staphylococcus aureus [15] = experiment: Antibacterial activity against Staphylococcus aureus ATCC43300 infected in sepsis mouse model assessed as log reduction in bacterial load in spleen at 5 mg/kg pre-infected with bacteria for 1 hrs followed by compound administration at 12 hrs interval for 2 days relative to control; format: functional; details: time 2 day
Enterococcus faecalis = experiment: Antibacterial activity against vancomycin susceptible Enterococcus faecalis ATCC29212 by broth microdilution assay; format: functional
Staphylococcus aureus [16] = experiment: Bactericidal activity against Staphylococcus aureus ATCC43300 assessed as elimination of bacteria at 8 microg/ml measured within 6 hrs by time-kill kinetics assay relative to control; format: functional; details: dose 8 µg/ml
Staphylococcus aureus [17] = experiment: Antibacterial activity against Staphylococcus aureus ATCC43300 infected in sepsis mouse model assessed as reduction in liver inflammation at 5 to 10 mg/kg pre-infected with bacteria for 1 hrs followed by compound administration at 12 hrs interval for 2 days by H and E staining based analysis; format: functional, organism-based; details: dose 5-10 mg/kg, time 2.0 day
Staphylococcus aureus [18] = experiment: Antibacterial activity against Staphylococcus aureus ATCC43300 infected in sepsis mouse model assessed as reduction in spleen damage at 5 to 10 mg/kg pre-infected with bacteria for 1 hrs followed by compound administration at 12 hrs interval for 2 days by H and E staining based analysis; format: functional, organism-based; details: dose 5-10 mg/kg, time 2.0 day
Escherichia coli [19] = experiment: Induction of morphological changes in Escherichia coli ATCC25922 assessed as collapse of cell membrane by scanning electron microscopic analysis; format: functional, organism-based
Escherichia coli [20] = experiment: Antibacterial activity against Escherichia coli ATCC25922 infected in sepsis mouse model assessed as reduction in spleen inflammation at 5 to 10 mg/kg pre-infected with bacteria for 1 hrs followed by compound administration at 12 hrs interval for 2 days by H and E staining based analysis; format: functional, organism-based; details: dose 5-10 mg/kg, time 2.0 day
Escherichia coli [21] = experiment: Ratio of MBC for Escherichia coli ATCC25922 in presence of 50% blood to MBC for Escherichia coli ATCC25922 in Mueller Hinton Broth; format: functional
[22] = Toxicity in BALB/c mouse assessed as survival rate at 20 to 50 mg/kg, ip administered for 7 days relative to control; format: organism-based; details: in vivo, dose 20-50 mg/kg, time 7 day
Staphylococcus aureus [23] = experiment: Bactericidal activity against Staphylococcus aureus ATCC43300 in presence of 50% blood; format: functional
[24] = Toxicity in ip dosed BALB/c mouse assessed as maximum tolerated dose measured after 7 days; format: organism-based; details: in vivo, time 7 day
Staphylococcus aureus [25] = experiment: Antibacterial activity against Staphylococcus aureus ATCC43300 infected in sepsis mouse model assessed as reduction in inflammatory cell infiltration in spleen at 10 mg/kg pre-infected with bacteria for 1 hrs followed by compound administration at 12 hrs interval for 2 days by H and E staining based analysis; format: functional, organism-based; details: time 2.0 day
[26] = Ratio of MBC for Escherichia coli ATCC25922 in presence of 50% plasma to MBC for Escherichia coli ATCC25922 in Mueller Hinton Broth; format: functional
Cell membrane [27] = experiment: Induction of inner membrane permeabilization in Escherichia coli ATCC25922 assessed as increase in fluorescence intensity incubated for 20 mins by PI uptake assay; format: subcellular; details: dose 0.5-8 µg/ml
Bacillus subtilis = experiment: Antibacterial activity against penicillin-susceptible Bacillus subtilis ATCC9372 by broth microdilution assay; format: functional
Escherichia coli [28] = experiment: Antibacterial activity against Escherichia coli ATCC25922 infected in sepsis mouse model assessed as reduction in inflammatory cell infiltration in liver at 10 mg/kg pre-infected with bacteria for 1 hrs followed by compound administration at 12 hrs interval for 2 days by H and E staining based analysis; format: functional, organism-based; details: time 2.0 day
Escherichia coli [29] = experiment: Bactericidal activity against Escherichia coli ATCC25922 assessed as bacterial killing at 8 times of MIC measured after 8 hrs by time-kill kinetics assay relative to control; format: functional
Pseudomonas aeruginosa = experiment: Antibacterial activity against penicillin-susceptible Pseudomonas aeruginosa ATCC27853 by broth microdilution method; format: functional
Cell membrane [30] = experiment: Induction of cytoplasmic membrane depolarization in Staphylococcus aureus ATCC43300 assessed as increase in fluorescence intensity measured after 24 mins by DiSC3(5) dye-based fluorescence assay; details: dose 0.5-8 µg/ml
Cell membrane [31] = experiment: Disruption of cell membrane in Escherichia coli ATCC25922 assessed as appearance of blue fluorescence by DAPI staining based fluorescence microscopic analysis; format: subcellular
Cell membrane [32] = experiment: Disruption of cell membrane in Escherichia coli ATCC25922 assessed as increase in intracellular ROS level by measuring fold increase in fluorescence intensity at 8 microg/ml by DCFH-DA staining based fluorescence analysis relative to blank control group; details: dose 8.0 µg/ml
Escherichia coli [33] = experiment: Bactericidal activity against Escherichia coli ATCC25922 in Mueller Hinton Broth; format: functional
Escherichia coli [34] = experiment: Antibacterial activity against penicillin-susceptible Escherichia coli ATCC25922 by broth microdilution method; format: functional

SMILES: CCCCCCOc1cc[n+](CCCOc2ccc(/C=C/C(=O)c3ccc(OCCC[n+]4ccc(OCCCCCC)cc4)cc3)cc2)cc1.[Br-].[Br-]
- Activity (Staphylococcus aureus [1]): Active
- fold change (FC) (Cell membrane [2]): 12
- MBC (Staphylococcus aureus [3]): 4 µg/mL
- fold change (FC) (Cell membrane [4]): 5.8
- log(activity) (Escherichia coli [5]): 8.31
- Activity (Escherichia coli [6]): 41.61%
- Ratio (Escherichia coli [7]): < 2
- Activity (Cell membrane [8]): Active
- MIC (Staphylococcus aureus [9]): 1 µg/mL
- Activity (Escherichia coli [10]): Active
- Activity (Staphylococcus aureus [11]): Active
- Ratio (Staphylococcus aureus [12]): < 2
- inhibition at 1 µg/mL (Staphylococcus aureus [13]): 6.91%
- Activity (Staphylococcus aureus [14]): Active
- log(activity) (Staphylococcus aureus [15]): 1.02
- MIC (Enterococcus faecalis): 0.5 µg/mL
- Activity (Staphylococcus aureus [16]): 100%
- Activity (Staphylococcus aureus [17]): Active
- Activity (Staphylococcus aureus [18]): Active
- Activity (Escherichia coli [19]): Active
- Activity (Escherichia coli [20]): Active
- Ratio (Escherichia coli [21]): < 2
- survival at 168 h [22]: 100%
- MIC (Staphylococcus aureus [23]): 16 µg/mL
- MTD at 168 h [24]: 50 mg/kg
- Activity (Staphylococcus aureus [25]): inactive
- Ratio [26]: <2
- Activity (Cell membrane [27]): Dose-dependent-effect
- MIC (Bacillus subtilis): 1 µg/mL
- Activity (Escherichia coli [28]): inactive
- Activity (Escherichia coli [29]): 100%
- MIC (Pseudomonas aeruginosa): 32 µg/mL
- Activity (Cell membrane [30]): Dose-dependent-effect
- Activity (Cell membrane [31]): Active
- fold change (FC) (Cell membrane [32]): 1.5
- MBC (Escherichia coli [33]): 8 µg/mL
- MIC (Escherichia coli [34]): 1 µg/mL
